Drawing on PubChem BioAssay AID1259407 (Chemical Carcinogenesis Research Information System (CCRIS), 2018), this text covers mutagenic call for 4 compounds.

The structures appear in SMILES notation. Activity calls are given as the source filed them. No rule for the calls is given here.

The subject of this data set is CCRIS mutagenicity, Ames/micronucleus/aberration tests. The experiment in a line: CCRIS mutagenicity studies.
[1] abbreviates: Test System: AMES SALMONELLA TYPHIMURIUM, Strain/Indicator: TA98, Metabolic Activation: NONE, Method: STANDARD PLATE.
The mark [2] stands for this setting: Test System: AMES SALMONELLA TYPHIMURIUM, Strain/Indicator: TA98, Metabolic Activation: RAT, LIVER, S-9, AROCLOR 1254, Method: STANDARD PLATE.
Setting [3] is: Test System: AMES SALMONELLA TYPHIMURIUM, Strain/Indicator: TA100, Metabolic Activation: NONE, Method: STANDARD PLATE.
Where [4] appears, read: Test System: AMES SALMONELLA TYPHIMURIUM, Strain/Indicator: TA100, Metabolic Activation: RAT, LIVER, S-9, AROCLOR 1254, Method: STANDARD PLATE.
The mark [5] stands for this setting: Test System: AMES SALMONELLA TYPHIMURIUM, Strain/Indicator: TA1535, Metabolic Activation: NONE, Method: STANDARD PLATE.
[6] abbreviates: Test System: AMES SALMONELLA TYPHIMURIUM, Strain/Indicator: TA1537, Metabolic Activation: NONE, Method: STANDARD PLATE.

Take `CN(N=O)c1ccccc1`: the mutagenic call is “inactive; negative” (Test System: AMES SALMONELLA TYPHIMURIUM, Strain/Indicator: HISG428, Metabolic Activation: RAT, LIVER, S-9, AROCLOR 1254, Method: PREINCUBATION); “active; positive” (Test System: AMES SALMONELLA TYPHIMURIUM, Strain/Indicator: TA100, Metabolic Activation: RAT, LIVER, S-9, AROCLOR 1254, Method: PREINCUBATION); “active; positive” (Test System: AMES SALMONELLA TYPHIMURIUM, Strain/Indicator: TA104, Metabolic Activation: RAT, LIVER, S-9, AROCLOR 1254, Method: PREINCUBATION); “inactive; negative” (Test System: AMES SALMONELLA TYPHIMURIUM, Strain/Indicator: TA1537, Metabolic Activation: RAT, LIVER, S-9, PHENOBARBITAL, Method: STANDARD PLATE); “active; positive” (Test System: AMES SALMONELLA TYPHIMURIUM, Strain/Indicator: TA1537, Metabolic Activation: RAT, LIVER, S-9, PYRAZOLE, Method: STANDARD PLATE); “active; positive” (Test System: AMES SALMONELLA TYPHIMURIUM, Strain/Indicator: TA1537, Metabolic Activation: RAT, LIVER, S-9, Method: LIQUID INCUBATION). For the same compound, the mutagenic call is, setting by setting: (Test System: AMES SALMONELLA TYPHIMURIUM, Strain/Indicator: TA2638, Metabolic Activation: RAT, LIVER, S-9, AROCLOR 1254, Method: PREINCUBATION) “active; positive”; (Test System: AMES SALMONELLA TYPHIMURIUM, Strain/Indicator: TA2659, Metabolic Activation: RAT, LIVER, S-9, AROCLOR 1254, Method: PREINCUBATION) “inactive; negative”; (Test System: AMES SALMONELLA TYPHIMURIUM, Strain/Indicator: YG7108-2A6-OR, Metabolic Activation: NONE, Method: PREINCUBATION) “active; positive”; (Test System: AMES SALMONELLA TYPHIMURIUM, Strain/Indicator: YG7108-2A6, Metabolic Activation: NONE, Method: PREINCUBATION) “active; positive”; (Test System: AMES SALMONELLA TYPHIMURIUM, Strain/Indicator: YG7108-PCW, Metabolic Activation: NONE, Method: PREINCUBATION) “inactive; negative”; (Test System: AMES SALMONELLA TYPHIMURIUM, Strain/Indicator: YG7108, Metabolic Activation: RAT LIVER S-9, PHENOBARBITAL AND 5,6-BENZOFLAVONE, Method: PREINCUBATION) “inactive; negative”.

On to `Cc1cc(Cl)ccc1N`, for which the mutagenic call reads like this: (End Point: IN VITRO CHROMOSOMAL ABERRATIONS, Test System: CHINESE HAMSTER OVARY CELLS, Metabolic Activation: NONE) “inactive; negative; authors report that the study may not have allowed sufficient time for”; (End Point: IN VITRO CHROMOSOMAL ABERRATIONS, Test System: CHINESE HAMSTER OVARY CELLS, Metabolic Activation: RAT, LIVER, S-9, AROCLOR 1254) “active; positive”; under setting [1], “inactive; negative”; under setting [2], “active; positive”; (Test System: AMES SALMONELLA TYPHIMURIUM, Strain/Indicator: TA98, Metabolic Activation: RAT, LIVER, S-9, CLOPHEN A50, Method: STANDARD PLATE) “active; positive”; under setting [3], “inactive; negative”. The mutagenic call by setting is: under setting [4], “inactive; negative”; (Test System: AMES SALMONELLA TYPHIMURIUM, Strain/Indicator: TA100, Metabolic Activation: RAT, LIVER, S-9, CLOPHEN A50, Method: STANDARD PLATE) “active; positive”; under setting [5], “inactive; negative”; (Test System: AMES SALMONELLA TYPHIMURIUM, Strain/Indicator: TA1535, Metabolic Activation: RAT, LIVER, S-9, CLOPHEN A50, Method: STANDARD PLATE) “inactive; negative”; under setting [6], “inactive; negative”; (Test System: AMES SALMONELLA TYPHIMURIUM, Strain/Indicator: TA1537, Metabolic Activation: RAT, LIVER, S-9, CLOPHEN A50, Method: STANDARD PLATE) “inactive; negative”.

For `C#C[C@]1(O)CC[C@H]2[C@@H]3CCC4=CC(=O)CC[C@@H]4[C@H]3CC[C@@]21CC`, the mutagenic call runs as follows: (End Point: IN VITRO CHROMOSOMAL ABERRATIONS, Test System: HUMAN LYMPHOCYTES, Metabolic Activation: NONE) “active; positive at two higher doses (structural changes)”; (End Point: IN VITRO CHROMOSOMAL ABERRATIONS, Test System: HUMAN LYMPHOCYTES, Metabolic Activation: RAT, LIVER, S-9, PHENOBARBITONE) “active; positive at all dose levels (structural changes)”; (Test System: AMES SALMONELLA TYPHIMURIUM, Strain/Indicator: TA98, Metabolic Activation: MOUSE, LIVER, S-9, Method: STANDARD PLATE) “inactive; negative”; under setting [1], “inactive; negative”; under setting [2], “inactive; negative”; (Test System: AMES SALMONELLA TYPHIMURIUM, Strain/Indicator: TA100, Metabolic Activation: MOUSE, LIVER, S-9, Method: STANDARD PLATE) “inactive; negative”. Further, the mutagenic call under setting [3] is “inactive; negative”; the mutagenic call under setting [4] is “inactive; negative”; the mutagenic call (Test System: AMES SALMONELLA TYPHIMURIUM, Strain/Indicator: TA1535, Metabolic Activation: MOUSE, LIVER, S-9, Method: STANDARD PLATE) is “inactive; negative”; the mutagenic call under setting [5] was “inactive; negative”; the mutagenic call (Test System: AMES SALMONELLA TYPHIMURIUM, Strain/Indicator: TA1535, Metabolic Activation: RAT, LIVER, S-9, AROCLOR 1254, Method: STANDARD PLATE) is “inactive; negative”; the mutagenic call (Test System: AMES SALMONELLA TYPHIMURIUM, Strain/Indicator: TA1537, Metabolic Activation: MOUSE, LIVER, S-9, Method: STANDARD PLATE) is “inactive; negative”. The mutagenic call was “inactive; negative” under setting [6]; “inactive; negative” (Test System: AMES SALMONELLA TYPHIMURIUM, Strain/Indicator: TA1537, Metabolic Activation: RAT, LIVER, S-9, AROCLOR 1254, Method: STANDARD PLATE); “inactive; negative” (Test System: AMES SALMONELLA TYPHIMURIUM, Strain/Indicator: TA1538, Metabolic Activation: MOUSE, LIVER, S-9, Method: STANDARD PLATE); “inactive; negative” (Test System: AMES SALMONELLA TYPHIMURIUM, Strain/Indicator: TA1538, Metabolic Activation: NONE, Method: STANDARD PLATE); “inactive; negative” (Test System: AMES SALMONELLA TYPHIMURIUM, Strain/Indicator: TA1538, Metabolic Activation: RAT, LIVER, S-9, AROCLOR 1254, Method: STANDARD PLATE).

For the compound `Cn1c([N+](=O)[O-])nc2c3cccnc3ccc21`, the mutagenic call is “inactive; negative” (Test System: AMES SALMONELLA TYPHIMURIUM, Strain/Indicator: TA98(1,8-DNP6), Metabolic Activation: NONE, Method: PREINCUBATION); “active; positive” (Test System: AMES SALMONELLA TYPHIMURIUM, Strain/Indicator: TA98, Metabolic Activation: NONE, Method: PREINCUBATION); “active; positive” (Test System: AMES SALMONELLA TYPHIMURIUM, Strain/Indicator: YG1024, Metabolic Activation: NONE, Method: PREINCUBATION); “active; positive” (Test System: E. COLI, Strain/Indicator: CC109, Metabolic Activation: NONE, Method: STANDARD PLATE); “active; positive” (Test System: E. COLI, Strain/Indicator: CC109PYG219, Metabolic Activation: NONE, Method: STANDARD PLATE); “inactive; negative” (Test System: E. COLI, Strain/Indicator: DJ3107, Metabolic Activation: NONE, Method: STANDARD PLATE). Moreover, the mutagenic call is, setting by setting: (Test System: E. COLI, Strain/Indicator: DJ3108, Metabolic Activation: NONE, Method: STANDARD PLATE) “active; positive”; (Test System: E. COLI, Strain/Indicator: DJ3109, Metabolic Activation: NONE, Method: STANDARD PLATE) “active; positive”; (Test System: E. COLI, Strain/Indicator: DJ3110, Metabolic Activation: NONE, Method: STANDARD PLATE) “inactive; negative”; (Test System: E. COLI, Strain/Indicator: DJ3111, Metabolic Activation: NONE, Method: STANDARD PLATE) “inactive; negative”; (Test System: E. COLI, Strain/Indicator: DJ3207, Metabolic Activation: NONE, Method: STANDARD PLATE) “inactive; negative”; (Test System: E. COLI, Strain/Indicator: DJ3208, Metabolic Activation: NONE, Method: STANDARD PLATE) “active; positive”. Further, the mutagenic call by setting is: (Test System: E. COLI, Strain/Indicator: DJ3209, Metabolic Activation: NONE, Method: STANDARD PLATE) “active; positive”; (Test System: E. COLI, Strain/Indicator: DJ3211, Metabolic Activation: NONE, Method: STANDARD PLATE) “inactive; negative”.
